Data as given in patent publication US11053204B2, “Pyrimidinyloxy benzene derivatives as herbicides” (FMC Corporation, priority 2015, dated 2021).

How the values were obtained:
Format in all cases: in vivo
[1] = tested on: Italian ryegrass (Lolium multiflorum); assay: Test A preemergence, visual injury rating; conditions: for Ryegrass, Italian plant response rating: 0 to 100 scale (0 no effect, 100 complete control)
In short: (§1)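 Visual injury scored 0–100 (100 = complete control) against untreated controls about 10 days after treatment in a greenhouse. Test chemicals, formulated with surfactant in non-phytotoxic solvent, were sprayed on soil preemergence or on 2-10 cm, one- to two-leaf plants postemergence.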

[2] = tested on: barnyardgrass (Echinochloa crus-galli); assay: Test A preemergence, visual injury rating; conditions: for Barnyardgrass plant response rating: 0 to 100 scale (0 no effect, 100 complete control)
In short: as §1

[3] = tested on: giant foxtail (Setaria faberii); assay: Test A preemergence, visual injury rating; conditions: for Foxtail, Giant plant response rating: 0 to 100 scale (0 no effect, 100 complete control)
In short: as §1

kochia (Kochia scoparia) [4] = assay: Test A preemergence, visual injury rating; conditions: for Kochia plant response rating: 0 to 100 scale (0 no effect, 100 complete control)
In short: as §1

[5] = tested on: pigweed (Amaranthus retroflexus); assay: Test A preemergence, visual injury rating; conditions: for Pigweed plant response rating: 0 to 100 scale (0 no effect, 100 complete control)
In short: as §1

[6] = tested on: ragweed (common ragweed, Ambrosia elatior); assay: Test A preemergence, visual injury rating; conditions: for Ragweed plant response rating: 0 to 100 scale (0 no effect, 100 complete control)
In short: as §1

[7] = tested on: Italian ryegrass (Lolium multiflorum); assay: Test A postemergence, visual injury rating; conditions: 0 is no effect, 100 is complete control
In short: as §1

[8] = tested on: barnyardgrass (Echinochloa crus-galli); assay: Test A postemergence, visual injury rating; conditions: 0 is no effect, 100 is complete control
In short: as §1

[9] = tested on: blackgrass (Alopecurus myosuroides); assay: Test A postemergence, visual injury rating; conditions: 0 is no effect, 100 is complete control
In short: as §1

corn (Zea mays) = assay: Test A postemergence, visual injury rating; conditions: 0 is no effect, 100 is complete control
In short: as §1

[10] = tested on: galium (catchweed bedstraw, Galium aparine); assay: Test A postemergence, visual injury rating; conditions: 0 is no effect, 100 is complete control
In short: as §1

[11] = tested on: giant foxtail (Setaria faberii); assay: Test A postemergence, visual injury rating; conditions: 0 is no effect, 100 is complete control
In short: as §1

kochia (Kochia scoparia) [12] = assay: Test A postemergence, visual injury rating; conditions: 0 is no effect, 100 is complete control
In short: as §1

[13] = tested on: pigweed (Amaranthus retroflexus); assay: Test A postemergence, visual injury rating; conditions: 0 is no effect, 100 is complete control
In short: as §1

[14] = tested on: ragweed (common ragweed, Ambrosia elatior); assay: Test A postemergence, visual injury rating; conditions: 0 is no effect, 100 is complete control
In short: as §1

[15] = tested on: wheat (Triticum aestivum); assay: Test A postemergence, visual injury rating; conditions: 0 is no effect, 100 is complete control
In short: as §1

[16] = tested on: barnyardgrass (Echinochloa crus-galli); assay: Test B flooded paddy test, plant response rating; conditions: 250 g ai/ha; Flood; scale of 0 to 100 where 0 is no effect and 100 is complete control; 13 to 15 days
In short: (§2)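 Flooded 3 cm over soil; compound into paddy water; depth kept constant. Greenhouse 13–15 d.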

[17] = tested on: ducksalad (Heteranthera limosa); assay: Test B flooded paddy test, plant response rating; conditions: 250 g ai/ha; Flood; scale of 0 to 100 where 0 is no effect and 100 is complete control; 13 to 15 days
In short: as §2

rice (Oryza sativa) = assay: Test B flooded paddy test, plant response rating; conditions: 250 g ai/ha; Flood; scale of 0 to 100 where 0 is no effect and 100 is complete control; 13 to 15 days
In short: as §2

[18] = tested on: sedge, umbrella (small-flower umbrella sedge, Cyperus difformis); assay: Test B flooded paddy test, plant response rating; conditions: 250 g ai/ha; Flood; scale of 0 to 100 where 0 is no effect and 100 is complete control; 13 to 15 days
In short: as §2

[19] = 31 g ai/ha, 0 to 100 scale, 0 no effect, 100 complete control
[20] = 31 g ai/ha, 0 to 100 scale, approximately 10 days

N#Cc1ccc(Oc2ncc(Cl)cn2)c(C(=O)OCCC(F)(F)F)c1 [Compound 64]
0: Ryegrass, Italian plant response rating ([1]; 125 g ai/ha) | Ryegrass, Italian plant response rating ([1]; 500 g ai/ha) | Barnyardgrass plant response rating ([2]; 125 g ai/ha) | Barnyardgrass plant response rating ([2]; 500 g ai/ha) | Foxtail, Giant plant response rating ([3]; 125 g ai/ha) | Foxtail, Giant plant response rating ([3]; 500 g ai/ha) | Kochia plant response rating (kochia (Kochia scoparia) [4]; 125 g ai/ha) | Kochia plant response rating (kochia (Kochia scoparia) [4]; 500 g ai/ha) | Pigweed plant response rating ([5]; 125 g ai/ha) | Pigweed plant response rating ([5]; 500 g ai/ha) | Ragweed plant response rating ([6]; 125 g ai/ha) | Ragweed plant response rating ([6]; 500 g ai/ha) | Ryegrass, Italian plant response rating (0 to 100 scale) ([7]; 125 g ai/ha) | Ryegrass, Italian plant response rating (0 to 100 scale) ([7]; 500 g ai/ha) | Barnyardgrass plant response rating (0 to 100 scale) ([8]; 125 g ai/ha) | Barnyardgrass plant response rating (0 to 100 scale) ([8]; 500 g ai/ha) | Blackgrass plant response rating (0 to 100 scale) ([9]; 125 g ai/ha) | Blackgrass plant response rating (0 to 100 scale) ([9]; 500 g ai/ha) | Corn plant response rating (0 to 100 scale) (corn (Zea mays); 125 g ai/ha) | Corn plant response rating (0 to 100 scale) (corn (Zea mays); 500 g ai/ha) | Galium plant response rating (0 to 100 scale) ([10]; 125 g ai/ha) | Galium plant response rating (0 to 100 scale) ([10]; 500 g ai/ha) | Foxtail, Giant plant response rating (0 to 100 scale) ([11]; 125 g ai/ha) | Foxtail, Giant plant response rating (0 to 100 scale) ([11]; 500 g ai/ha) | Kochia plant response rating (0 to 100 scale) (kochia (Kochia scoparia) [12]; 125 g ai/ha) | Kochia plant response rating (0 to 100 scale) (kochia (Kochia scoparia) [12]; 500 g ai/ha) | Pigweed plant response rating (0 to 100 scale) ([13]; 125 g ai/ha) | Pigweed plant response rating (0 to 100 scale) ([13]; 500 g ai/ha) | Ragweed plant response rating (0 to 100 scale) ([14]; 125 g ai/ha) | Ragweed plant response rating (0 to 100 scale) ([14]; 500 g ai/ha) | Wheat plant response rating (0 to 100 scale) ([15]; 125 g ai/ha) | Wheat plant response rating (0 to 100 scale) ([15]; 500 g ai/ha) | Plant response rating, Barnyardgrass [16] | Plant response rating, Ducksalad [17] | Plant response rating, Rice (rice (Oryza sativa)) | Plant response rating, Sedge, Umbrella [18]

CCCC(=O)c1c(C#N)cccc1Oc1ncc(Cl)cn1 [Compound 67]
0: Plant response rating, Ryegrass, Italian [1, 19] | Ryegrass, Italian plant response rating ([1]; 125 g ai/ha) | Plant response rating, Barnyardgrass [2, 19] | Barnyardgrass plant response rating ([2]; 125 g ai/ha) | Plant response rating, Foxtail, Giant [3, 19] | Foxtail, Giant plant response rating ([3]; 125 g ai/ha) | Plant response rating, Kochia (kochia (Kochia scoparia) [4]; [19]) | Kochia plant response rating (kochia (Kochia scoparia) [4]; 125 g ai/ha) | Plant response rating, Pigweed [5, 19] | Pigweed plant response rating ([5]; 125 g ai/ha) | Plant response rating, Ragweed [6, 19] | Ragweed plant response rating ([6]; 125 g ai/ha) | Ryegrass, Italian plant response rating [7, 20] | Ryegrass, Italian plant response rating (0 to 100 scale) ([7]; 125 g ai/ha) | Barnyardgrass plant response rating [8, 20] | Barnyardgrass plant response rating (0 to 100 scale) ([8]; 125 g ai/ha) | Blackgrass plant response rating [9, 20] | Blackgrass plant response rating (0 to 100 scale) ([9]; 125 g ai/ha) | Corn plant response rating (corn (Zea mays); [20]) | Corn plant response rating (0 to 100 scale) (corn (Zea mays); 125 g ai/ha) | Galium plant response rating [10, 20] | Galium plant response rating (0 to 100 scale) ([10]; 125 g ai/ha) | Foxtail, Giant plant response rating [11, 20] | Foxtail, Giant plant response rating (0 to 100 scale) ([11]; 125 g ai/ha) | Kochia plant response rating (kochia (Kochia scoparia) [12]; [20]) | Kochia plant response rating (0 to 100 scale) (kochia (Kochia scoparia) [12]; 125 g ai/ha) | Pigweed plant response rating [13, 20] | Pigweed plant response rating (0 to 100 scale) ([13]; 125 g ai/ha) | Ragweed plant response rating [14, 20] | Ragweed plant response rating (0 to 100 scale) ([14]; 125 g ai/ha) | Wheat plant response rating [15, 20] | Wheat plant response rating (0 to 100 scale) ([15]; 125 g ai/ha) | Plant response rating, Barnyardgrass [16] | Plant response rating, Ducksalad [17] | Plant response rating, Rice (rice (Oryza sativa)) | Plant response rating, Sedge, Umbrella [18]
